Patent publication US20040092591A1, “Therapeutic use of fused bicyclic or tricyclic amino acids” (priority 2002, published 2004)

Target: T1, α2δ subunit derived from porcine brain tissue (Sus scrofa, UniProt A0A287BIN3)
T1 construct: the α2δ subunit derived from porcine brain tissue; from tissue; host or cells: porcine brain
Test: radioligand binding assay using [3H]gabapentin and the α2δ subunit
Settings: [3H]gabapentin radioligand
Source text: The biological activity of the compounds of the invention may be measured in a radioligand binding assay using [^3H]gabapentin and the α2δ subunit derived from porcine brain tissue (Gee N. S., Brown J. P., Dissanayake V. U. K., Offord J., Thurlow R., Woodruff G. N., […] J. Biol. Chem., 1996;271:5879-[…]). Results may be expressed in terms of μM or nM α2δ binding affinity.

T1 sequence (A0A287BIN3 entry or part of it): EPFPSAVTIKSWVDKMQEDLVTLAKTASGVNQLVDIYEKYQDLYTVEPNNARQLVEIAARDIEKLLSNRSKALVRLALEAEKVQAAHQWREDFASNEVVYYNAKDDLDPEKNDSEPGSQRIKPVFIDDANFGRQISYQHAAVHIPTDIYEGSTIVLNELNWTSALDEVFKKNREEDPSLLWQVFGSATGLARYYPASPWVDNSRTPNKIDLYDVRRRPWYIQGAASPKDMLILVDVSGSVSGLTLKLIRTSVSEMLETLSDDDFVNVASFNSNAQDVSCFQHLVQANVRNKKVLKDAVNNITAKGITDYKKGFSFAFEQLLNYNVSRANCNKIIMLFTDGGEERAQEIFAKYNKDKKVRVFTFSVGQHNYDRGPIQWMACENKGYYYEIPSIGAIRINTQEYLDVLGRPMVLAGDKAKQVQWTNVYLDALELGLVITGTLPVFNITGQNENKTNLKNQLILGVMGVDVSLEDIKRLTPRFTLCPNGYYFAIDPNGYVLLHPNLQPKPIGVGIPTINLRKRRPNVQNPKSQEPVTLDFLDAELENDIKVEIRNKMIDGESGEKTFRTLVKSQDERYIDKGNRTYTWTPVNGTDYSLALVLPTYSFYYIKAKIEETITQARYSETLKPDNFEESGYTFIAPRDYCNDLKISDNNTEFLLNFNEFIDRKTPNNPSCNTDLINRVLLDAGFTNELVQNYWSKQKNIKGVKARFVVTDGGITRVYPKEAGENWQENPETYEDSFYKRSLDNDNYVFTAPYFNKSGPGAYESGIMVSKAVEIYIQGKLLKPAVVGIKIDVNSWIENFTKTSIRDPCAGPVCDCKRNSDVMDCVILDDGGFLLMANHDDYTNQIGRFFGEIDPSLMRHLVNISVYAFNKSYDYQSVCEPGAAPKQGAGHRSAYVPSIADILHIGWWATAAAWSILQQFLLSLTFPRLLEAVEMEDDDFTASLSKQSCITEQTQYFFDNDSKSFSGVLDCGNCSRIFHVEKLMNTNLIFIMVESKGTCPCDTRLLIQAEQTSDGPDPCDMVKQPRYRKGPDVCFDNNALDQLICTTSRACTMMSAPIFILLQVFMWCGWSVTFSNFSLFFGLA

Compound | α2δ binding affinity [nM]
Cl.NC[C@]1(CC(=O)O)C[C@H]2CCCC[C@H]21 (racemic) [Example 4, [(1RS,6RS,7SR)-7-(Aminomethyl)bicyclo[4.2.]oct-7-yl]acetic acid hydrochloride] | 600
Cl.NC[C@]1(CC(=O)O)C[C@H]2CCC[C@H]21 [Example 1, [(1R,5R,6S)-6-(Aminomethyl)bicycl[3.2.0]hept-6-yl]acetic acid hydrochloride] | 46.8
